Data published in the supplement of paper PMC10307832.

Columns and labels:
Test in all cases: relative viability (nuclei count vs DMSO), 5 days (fraction); higher = more cells survive
Metformin + Linsitinib = compound: CN(C)C(=N)NC(=N)N [Metformin] + C[C@]1(O)C[C@@H](c2nc(-c3ccc4ccc(-c5ccccc5)nc4c3)c3c(N)nccn32)C1 [Linsitinib] (partner 1 µM)
Procedure, shortened: (§1)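 Nuclei were stained with Hoechst during a one-step fixation (final 0.05% Triton X-100, 1% formaldehyde, 1 ug/ml Hoechst) carried out 5 days after dosing, then counted on 4× images. The cells, lung cancer lines in 1536-well plates, had been dosed by pin tool the day after seeding with one drug alone or a fixed anchor-drug dose plus five library-drug doses (not always all listed) in √10 steps. Relative viability is the nuclei count in treated wells divided by that in vehicle wells, and each value is the median of duplicate plates.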

Apatinib + Palbociclib = compound: N#CC1(c2ccc(NC(=O)c3cccnc3NCc3ccncc3)cc2)CCCC1 [Apatinib] + CC(=O)c1c(C)c2cnc(Nc3ccc(N4CCNCC4)cn3)nc2n(C2CCCC2)c1=O [Palbociclib] (partner 0.5 µM)
Procedure, shortened: as §1

Apatinib + Decitabine = compound: N#CC1(c2ccc(NC(=O)c3cccnc3NCc3ccncc3)cc2)CCCC1 [Apatinib] + Nc1ncn([C@H]2C[C@H](O)[C@@H](CO)O2)c(=O)n1 [Decitabine] (partner 2 µM)
Procedure, shortened: as §1

Metformin + Crizotinib = compound: CN(C)C(=N)NC(=N)N [Metformin] + C[C@@H](Oc1cc(-c2cnn(C3CCNCC3)c2)cnc1N)c1c(Cl)ccc(F)c1Cl [Crizotinib] (partner 1 µM)
Procedure, shortened: as §1

Row | Cell Line | relative viability (Metformin + Linsitinib; first compound 10 µM) | relative viability (Metformin + Linsitinib; first compound 31.62 µM) | relative viability (Metformin + Linsitinib; first compound 100 µM) | relative viability (Metformin + Linsitinib; first compound 316.23 µM) | relative viability (Metformin + Linsitinib; first compound 1000 µM) | relative viability (Apatinib + Palbociclib; first compound 0.08 µM) | relative viability (Apatinib + Palbociclib; first compound 0.253 µM) | relative viability (Apatinib + Palbociclib; first compound 0.8 µM) | relative viability (Apatinib + Palbociclib; first compound 2.53 µM) | relative viability (Apatinib + Palbociclib; first compound 8 µM) | relative viability (Apatinib + Decitabine; first compound 0.08 µM) | relative viability (Apatinib + Decitabine; first compound 0.253 µM) | relative viability (Apatinib + Decitabine; first compound 0.8 µM) | relative viability (Apatinib + Decitabine; first compound 2.53 µM) | relative viability (Apatinib + Decitabine; first compound 8 µM) | relative viability (Metformin + Crizotinib; first compound 10 µM) | relative viability (Metformin + Crizotinib; first compound 31.62 µM) | relative viability (Metformin + Crizotinib; first compound 100 µM) | relative viability (Metformin + Crizotinib; first compound 316.23 µM) | relative viability (Metformin + Crizotinib; first compound 1000 µM)
1 | NCI-H1793 | 1.3 | 1.22 | 1.14 | 1 | 1.16 | 0.35 | 0.284 | 0.349 | 0.264 | 0.27 | 0.555 | 0.535 | 0.516 | 0.541 | 0.564 |  |  |  |  | 
2 | NCI-H1437 | 1.22 | 1.09 | 1.11 | 1.1 | 1.19 | 0.314 | 0.3 | 0.277 | 0.254 | 0.209 | 0.583 | 0.584 | 0.524 | 0.505 | 0.46 | 0.931 | 0.918 | 0.935 | 0.898 | 0.902
3 | SW 1573 | 0.916 | 0.811 | 0.969 | 0.72 | 0.996 | 0.4 | 0.518 | 0.433 | 0.379 | 0.252 | 0.77 | 0.615 | 0.593 | 0.513 | 0.603 | 0.892 | 0.849 | 0.866 | 0.706 | 0.815
4 | SW 900 |  |  |  |  |  | 0.616 | 0.548 | 0.558 | 0.478 | 0.435 | 0.417 | 0.479 | 0.447 | 0.562 | 0.652 |  |  |  |  | 
5 | LCLC-103H | 1.05 | 1.26 | 1.06 | 1.12 | 1.19 | 0.513 | 0.436 | 0.426 | 0.465 | 0.483 | 0.792 | 0.739 | 0.687 | 0.726 | 0.744 | 1.13 | 1.19 | 1.11 | 1.1 | 1.09
6 | BEN | 1.21 | 1.27 | 1.3 | 1.15 | 1.29 | 0.521 | 0.453 | 0.466 | 0.478 | 0.407 | 0.694 | 0.668 | 0.672 | 0.693 | 0.723 | 1.16 | 1.24 | 1.15 | 1.01 | 1.13
7 | EKVX | 0.739 | 0.969 | 1.04 | 0.861 | 0.9 | 0.378 | 0.482 | 0.33 | 0.375 | 0.378 | 0.352 | 0.291 | 0.339 | 0.309 | 0.298 | 0.657 | 0.896 | 0.958 | 0.716 | 0.895
8 | IA-LM | 0.119 | 0.729 | 0.611 | 0.404 | 0.78 |  |  |  |  |  |  |  |  |  |  | 0.76 | 0.944 |  | 0.926 | 0.973
9 | NCI-H1395 | 0.997 | 1.15 | 0.934 | 1.02 | 0.385 | 0.632 | 0.687 | 0.644 | 0.585 | 0.602 | 0.747 | 0.808 | 0.781 | 0.744 | 0.859 |  |  |  |  | 
10 | NCI-H2342 |  |  |  |  |  | 0.497 | 0.524 | 0.49 | 0.498 | 0.572 | 0.704 | 0.767 | 0.709 | 0.799 | 0.791 |  |  |  |  | 
11 | NCI-H1648 |  |  |  |  |  | 0.273 | 0.218 | 0.328 | 0.273 | 0.274 | 0.66 | 0.502 | 0.479 | 0.428 | 0.508 |  |  |  |  | 
12 | EBC-1 | 0.796 | 0.997 | 0.815 | 0.698 | 0.884 |  |  |  |  |  |  |  |  |  |  | 0.205 | 0.154 | 0.205 | 0.173 | 0.222
13 | NCI-H1703 | 1.41 | 0.892 | 0.832 | 0.485 | 0.599 |  |  |  |  |  |  |  |  |  |  | 0.989 | 0.934 | 0.66 | 0.679 | 0.886
14 | NCI-H2228 | 0.542 | 0.973 |  | 0.583 | 0.889 | 0.668 | 0.788 | 0.776 | 0.708 | 0.667 |  |  |  |  |  | 0.48 | 0.515 |  | 0.385 | 0.581
15 | NCI-H1563 | 1.22 | 1.34 | 1.19 | 0.955 | 0.893 |  |  |  |  |  |  |  |  |  |  | 0.855 | 0.889 | 0.865 | 0.793 | 0.827
16 | NCI-H596 | 1.11 | 1.18 | 1.32 | 1.08 | 1.25 |  |  |  |  |  | 1 | 1.18 | 0.916 | 1.04 | 1.08 | 1.05 | 1.17 | 1.09 | 1.11 | 1.17
17 | Calu-6 | 0.862 | 0.971 | 0.921 | 0.941 | 0.978 |  |  |  |  |  |  |  |  |  |  | 0.637 | 0.755 | 0.71 | 0.691 | 0.714
18 | NCI-H1299 | 1.03 | 1.04 | 1 | 0.958 | 0.974 |  |  |  |  |  |  |  |  |  |  | 0.98 | 0.962 | 0.975 | 0.972 | 1.04
19 | A549 | 0.647 | 0.789 | 0.85 | 0.631 | 0.711 |  |  |  |  |  | 0.257 | 0.264 | 0.247 | 0.344 | 0.448 | 0.782 | 0.531 | 0.653 | 0.723 | 0.777
20 | NCI-H522 |  |  |  |  |  | 1.03 | 1.18 | 1.06 | 0.928 | 0.903 | 0.685 | 0.63 | 0.749 | 0.606 | 0.672 |  |  |  |  | 
21 | NCI-H2170 |  |  |  |  |  | 0.387 | 0.382 | 0.362 | 0.379 | 0.298 | 0.476 | 0.494 | 0.461 | 0.518 | 0.508 | 1.09 | 1.14 | 1.19 | 1.02 | 1.19
22 | NCI-H1650 |  |  |  |  |  | 0.262 | 0.352 | 0.323 | 0.299 | 0.303 | 0.495 | 0.55 | 0.416 | 0.64 | 0.589 | 0.961 | 0.855 | 1.04 | 0.877 | 0.82
23 | CAL-12T | 0.818 | 0.81 | 0.824 | 0.691 | 0.759 | 0.448 | 0.56 | 0.465 | 0.485 | 0.367 |  |  |  |  |  |  | 0.64 | 0.552 | 0.611 | 0.521
